The values that follow come from BindingDB's records for doi:10.1016/s0196-9781(98)00023-0 (Hungarian Academy of Sciences, 1998).

“And” between values parts separate entries of the source, which are not always exact repeats. Equal entries are not always repeated. Non-standard residues stand in square brackets, D forms with d. Residues, ends and D or L forms follow the SMILES beside them. Tic = O=C(O)[C@@H]1Cc2ccccc2CN1

The term Ki denotes the dissociation constant of the complex between target and ligand, obtained from inhibition or displacement.

The target of experiment [1] is Mu-type opioid receptor (Rattus norvegicus, UniProt P33535).
Sequence of Mu-type opioid receptor (P33535 whole entry): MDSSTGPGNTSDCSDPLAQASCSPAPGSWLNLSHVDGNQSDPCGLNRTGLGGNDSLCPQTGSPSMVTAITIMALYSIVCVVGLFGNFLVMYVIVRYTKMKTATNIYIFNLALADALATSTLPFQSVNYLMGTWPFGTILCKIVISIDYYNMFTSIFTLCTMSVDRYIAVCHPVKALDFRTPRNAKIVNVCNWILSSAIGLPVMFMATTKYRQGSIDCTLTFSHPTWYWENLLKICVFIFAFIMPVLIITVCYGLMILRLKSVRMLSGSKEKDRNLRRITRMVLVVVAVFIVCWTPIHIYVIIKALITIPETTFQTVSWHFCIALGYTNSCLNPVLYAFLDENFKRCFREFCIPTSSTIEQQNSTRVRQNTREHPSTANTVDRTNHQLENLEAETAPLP
In experiment [2] the target is Delta-type opioid receptor (Rattus norvegicus, UniProt P33533).
Sequence of Delta-type opioid receptor (P33533 whole entry): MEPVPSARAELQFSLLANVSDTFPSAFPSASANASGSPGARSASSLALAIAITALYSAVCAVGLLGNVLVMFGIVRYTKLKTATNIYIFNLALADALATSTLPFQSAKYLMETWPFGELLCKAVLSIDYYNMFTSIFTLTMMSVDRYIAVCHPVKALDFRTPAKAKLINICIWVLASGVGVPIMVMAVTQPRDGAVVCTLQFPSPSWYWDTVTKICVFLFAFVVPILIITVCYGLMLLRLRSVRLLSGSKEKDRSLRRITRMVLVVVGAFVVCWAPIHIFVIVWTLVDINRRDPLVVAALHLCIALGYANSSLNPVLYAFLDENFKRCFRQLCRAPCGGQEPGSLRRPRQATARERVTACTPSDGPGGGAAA

For the compound `COc1cccc2c1[C@]13CCN(CC4CC4)C(C2)[C@]1(OC)CCC(=O)C3`, the Ki in experiment [1] is 4.59 nM and 7.23 nM.

As to `N[C@@H](Cc1ccc(O)cc1)C(=O)N1Cc2ccccc2C[C@H]1C(=O)N[C@@H](Cc1ccccc1)C(=O)N[C@@H](Cc1ccccc1)C(=O)O` [TIPP] (H-Y[Tic]FF-OH), in experiment [2], the inhibitory constant (Ki) was 9150 nM and 1700 nM.

In the case of `CC(C)C[C@H](NC(=O)[C@H](Cc1ccccc1)NC(=O)CNC(=O)[C@@H](CO)NC(=O)[C@@H](N)Cc1ccc(O)cc1)C(=O)N[C@H](C(=O)O)[C@@H](C)O` [DSLET-OH], the Ki in experiment [2] was 7.34 nM and 8.71 nM.

On to `Oc1ccc2c3c1OC1c4[nH]c5ccccc5c4CC4(O)[C@H](C2)N(CC2CC2)CCC314` (some centres undefined) [NALTRINDOLE], for which, in experiment [2], the Ki is 10.8 nM and 25.7 nM.
